# From publication PMC8329197, “Compounds targeting OSBPL7 increase ABCA1-dependent cholesterol efflux preserving kidney function in two models of kidney disease” (Nature Communications, 2021)
# Where “and” joins values, the source holds several entries; their conditions need not be identical. Equal values may be shown once.
# Tests used:
# [1] = test system: Adriamycin (ADR)-induced nephropathy in Balb/c mice; assay: ADR nephropathy: kidney cortex lipids (cholesterol ester, total cholesterol, triglycerides, Oil-red O); format: in vivo, mouse; conditions: ADR model; individual animals
# Experimental: OCT embedded kidney cortex samples were cryosectioned at 4 μm thickness and stained with Oil-Red O-isopropanol solution (Electron Microscopy Science, PA) diluted 6:4 in water, and then counterstained with Hematoxylin Harris Hg Free (VWR, PA). Sections were then evaluated using a light microscope (Olympus BX 41, Tokyo, Japan).
# Snap frozen kidney cortex samples were homogenized in 2 mM potassium phosphate buffer, pH 7, (10 µl buffer/mg tissue) using a glass douncer on ice. 100 μl of the homogenate were mixed thoroughly with 1 ml of hexane:isopropanol (3:2;v:v) per volume of tissue homogenate. The aqueous (pellet) and organic (supernatant) phases were separated by centrifugation at 12,000 × g for 5 min. Pellets (aqueous phase) were dried, reconstituted in 8 M urea, 0.1% SDS, 0.1 M NaOH, and total proteins were quantified by the BCA method (Thermofisher). The organic phase was dried by exposure to nitrogen. Lipids were then reconstituted in 100 µl isopropanol:NP-40 (9:1;v:v). Triglyceride content was assayed using a colorimetric kit according to the manufacturer’s instructions (Cayman Chemical USA). Total cholesterol and CE content were assayed using an enzymatic fluorometric method. For total cholesterol measurement, extracts were diluted 1:100 in assay buffer (100 mM potassium phosphate, 50 mM NaCl, 5 mM cholic acid, 0.1% Triton […], pH 7.4) containing cholesterol oxidase (1 U/ml), cholesterol esterase (1 U/ml), horseradish peroxidase (1 U/ml), and Amplex Red (75 µM). The reactions were incubated at 37 °C for 30 min in a black opaque 96-well plate (Greiner) and fluorescence was measured in a microplate reader (Spectramax i3X, Molecular Devices) at 530 nm excitation and 580 emission.
# For CE determination, 150 µl of the assay buffer described above, supplemented with bovine liver catalase (45 U/ml) and cholesterol oxidase (1 U/ml), was added to 25 μl of sample and incubated overnight at 37 °C to deplete free cholesterol leaving only cholesterol esters. Then, 75 µl of cholesterol ester detection reagent (1 U/ml cholesterol oxidase, 4 U/ml cholesterol esterase, 24 U/ml horseradish peroxidase, 300 µM Amplex Red) was added. The reaction was incubated at 37 °C for 30 min and the fluorescence signal was measured as described above. Internal standards included samples containing 1 mM of cholesterol and 5 μM of cholesterol oleate in order to verify the completeness of the enzymatic decomposition of free cholesterol as well as assay sensitivity and specificity.
# [2] = test system: Adriamycin (ADR)-induced nephropathy in Balb/c mice; assay: ADR nephropathy: liver total cholesterol, cholesterol esters, triglycerides; format: in vivo, mouse
# [3] = test system: Adriamycin (ADR)-induced nephropathy in Balb/c mice; assay: ADR nephropathy: WBC, hemoglobin, hematocrit, ALT, AST; format: in vivo, mouse; conditions: ADR-induced nephropathy
# [4] = test system: Adriamycin (ADR)-induced nephropathy in Balb/c mice; assay: Adriamycin-induced nephropathy, main study: albumin/creatinine ratio and body weight
# [5] = test system: Adriamycin (ADR)-induced nephropathy in Balb/c mice; assay: Adriamycin-induced nephropathy, dose-finding pilot study: ACR and body weight time course; conditions: for ACR in pilot study: days 7-28; for Body Weight / ACR in spot urine: ADR, individual mice
# [6] = 28 days treatment, 25th quartile
# [7] = 28 days treatment, 75th quartile
# [8] = 28 days treatment, group maximum
# [9] = 28 days treatment, group median
# [10] = 28 days treatment, group minimum
# [11] = 28 days treatment, individual mouse values
# [12] = 30 mg/Kg/day, 7 days after inj, 30 mg/kg/day
# [13] = 30 mg/Kg/day, 14 days after inj, 30 mg/kg/day
# [14] = 100 mg/Kg/day, 7 days after inj, 100 mg/kg/day
# [15] = 100 mg/Kg/day, 14 days after inj, 100 mg/kg/day
# [16] = 100 mg/Kg/day, 21 days after inj, 100 mg/kg/day
# [17] = 100 mg/Kg/day, 28 days after inj, 100 mg/kg/day
compound,measurement,setting,value
O=C(N[C@@H]1CCCC[C@H]1O)c1ccc(OCC(F)(F)F)c(-c2ccc(Cl)c(Cl)c2)n1 [Cpd A],KIDNEY CORTEX TOTAL CHOLESTEROL,[1],116.65 nmol Chol./mg protein and 64.31 nmol Chol./mg protein and 91.93 nmol Chol./mg protein and 226.3 nmol Chol./mg protein and 280.19 nmol Chol./mg protein and 194.83 nmol Chol./mg protein and 293.03 nmol Chol./mg protein and 87.04 nmol Chol./mg protein and 85.55 nmol Chol./mg protein and 75 nmol Chol./mg protein and 105.96 nmol Chol./mg protein
same,KIDNEY CORTEX TRIGLYCERIDES,[1],65.49 nmol Triglyceride /mg protein and 206.46 nmol Triglyceride /mg protein and 31.6 nmol Triglyceride /mg protein and 59.01 nmol Triglyceride /mg protein and 14.83 nmol Triglyceride /mg protein and 65.84 nmol Triglyceride /mg protein and 43.06 nmol Triglyceride /mg protein and 145.74 nmol Triglyceride /mg protein and 110.74 nmol Triglyceride /mg protein
same,LIVER CHOLESTEROL ESTERS,"[2]; ADR model, individual animals",1.39 nmol CE/ mg protein and 2.25 nmol CE/ mg protein and 2.79 nmol CE/ mg protein and 8 nmol CE/ mg protein and 3.82 nmol CE/ mg protein and 8.05 nmol CE/ mg protein
same,LIVER TOTAL CHOLESTEROL,"[2]; ADR model, individual animals",120 nmol Cholesterol/ mg protein and 119 nmol Cholesterol/ mg protein and 149 nmol Cholesterol/ mg protein and 163 nmol Cholesterol/ mg protein and 112 nmol Cholesterol/ mg protein and 195 nmol Cholesterol/ mg protein
same,LIVER TRIGLICERIDES,"[2]; ADR model, individual animals",75 nmol Triglycerides/ mg protein and 54.7 nmol Triglycerides/ mg protein and 58 nmol Triglycerides/ mg protein and 69 nmol Triglycerides/ mg protein and 38 nmol Triglycerides/ mg protein and 54.5 nmol Triglycerides/ mg protein
same,Hepatic triglyceride content vs. vehicle-treated controls,"[2]; ADR-challenged, 28 days",increased hepatic triglyceride content
same,"ALT, Median (IQR)",[3],256 (90.3-625) U/L
same,"ALT, Range",[3],88-766 U/L
same,"AST, Median (IQR)",[3],326 (213-500) U/L
same,"AST, Range",[3],200-685 U/L
same,"HTC, Median (IQR)",[3],54 (50-56) %
same,"HTC, Range",[3],47-62%
same,"Hgb, Median (IQR)",[3],13.6 g/dL
same,"Hgb, Range",[3],12.1 to 15.5 g/dL
same,"WBC, Range",[3],3.7-7.0 x103cells/µL
same,"ALT, QR(25)",[3]; [6],130.75 U/L
same,"AST, QR(25)",[3]; [6],232.75 U/L
same,"HTC, QR(25)",[3]; [6],51.25%
same,"Hgb, QR(25)",[3]; [6],13.1 g/dL
same,"WBC, QR(25)",[3]; [6],3.925 x 10^3 cells/ul
same,"ALT, QR(75)",[3]; [7],499.25 U/L
same,"AST, QR(75)",[3]; [7],421.5 U/L
same,"HTC, QR(75)",[3]; [7],55.5%
same,"Hgb, QR(75)",[3]; [7],13.9 g/dL
same,"WBC, QR(75)",[3]; [7],7.375 x 10^3 cells/ul
same,"ALT, Max",[3]; [8],766 U/L
same,"AST, Max",[3]; [8],685 U/L
same,"HTC, Max",[3]; [8],62%
same,"Hgb, Max",[3]; [8],15.5 g/dL
same,"WBC, Max",[3]; [8],8.2 x 10^3 cells/ul
same,"ALT, Median",[3]; [9],256.5 U/L
same,"AST, Median",[3]; [9],326 U/L
same,"HTC, Median",[3]; [9],54%
same,"Hgb, Median",[3]; [9],13.6 g/dL
same,"WBC, Median",[3]; [9],5.5 x 10^3 cells/ul
same,"ALT, Min",[3]; [10],88 U/L
same,"AST, Min",[3]; [10],200 U/L
same,"HTC, Min",[3]; [10],47%
same,"Hgb, Min",[3]; [10],12.1 g/dL
same,"WBC, Min",[3]; [10],3.7 x 10^3 cells/ul
same,Alanine Aminotransferase (ALT),[3]; [11],766 U/dL and 263 U/dL and 250 U/dL and 88 U/dL and 91 U/dL and 578 U/dL
same,Aspartate Aminotransferase (AST),[3]; [11],685 U/dL and 372 U/dL and 280 U/dL and 200 U/dL and 217 U/dL and 438 U/dL
same,Hematocrit HTC,[3]; [11],58% and 54% and 62% and 47% and 56% and 52% and 48% and 51%
same,White Blood Cells WBC,[3]; [11],7.7 x 10^3 cells/ul and 8.2 x 10^3 cells/ul and 4.7 x 10^3 cells/ul and 3.8 x 10^3 cells/ul and 4.3 x 10^3 cells/ul and 3.7 x 10^3 cells/ul and 7 x 10^3 cells/ul and 6.3 x 10^3 cells/ul and 7.5 x 10^3 cells/ul
same,Effect on weight loss,[4]; 28 days after ADR,substantially reduced weight loss
same,"ACR, median","[4]; 28 days after ADR, Cpd A 30, Cpd G 100, Cpd C 10 mg/Kg, group median",2.3 mg albumin/mg creatinine and 2.363 mg albumin/mg creatinine
same,Weight (d28),"[4]; animal weight when therapy finished, single animals",19 and 21 and 18 and 15 and 20
same,"Weight Change (as % of weight at day 0), Median","[4]; day 28 after ADR, Cpd A 30, Cpd G 100, Cpd C 10 mg/Kg",0%
same,Weight Change (as % of weight at day 0),"[4]; day 28 after ADR, Cpd A 30, Cpd G 100, Cpd C 10 mg/Kg, single animals",0% and -5.3% and -4.5% and -6.3% and -25% and 5.6%
same,ACR values (mg Albumin / mg Creatinine),"[4]; spot urine 28 days after ADR, oral daily Cpd A 30, Cpd G 100, Cpd C 10 mg/Kg, single animals",0.242 mg Albumin / mg Creatinine and 6.27 mg Albumin / mg Creatinine and 20.39 mg Albumin / mg Creatinine and 14.37 mg Albumin / mg Creatinine and 0.707 mg Albumin / mg Creatinine and 11.834 mg Albumin / mg Creatinine and 0.631 mg Albumin / mg Creatinine and 2.363 mg Albumin / mg Creatinine and 0.33 mg Albumin / mg Creatinine and 3.08 mg Albumin / mg Creatinine and 0.093 mg Albumin / mg Creatinine
same,Times lower ACR,"[4]; vs ADR+V, 28 days, Cpd A 30, Cpd G 100 mg/kg/day",8 times
same,ACR in pilot study,[5]; 30 mg/kg/day oral,significantly improved
same,ACR in pilot study,[5]; 100 mg/kg/day oral,significantly improved
same,Body Weight,"[5]; 30 mg/Kg/day, 0 days after inj, 30 mg/kg/day",19 grams (3×) and 18 grams and 20 grams
same,ACR in spot urine,[5]; [12],0.046 mg Albumin/ mg Creatinine in urine and 0.018 mg Albumin/ mg Creatinine in urine and 0.038 mg Albumin/ mg Creatinine in urine and 0.025 mg Albumin/ mg Creatinine in urine and 0.07 mg Albumin/ mg Creatinine in urine
same,Body Weight,[5]; [12],18 grams and 17 grams (3×) and 19 grams
same,ACR in spot urine,[5]; [13],18.583 mg Albumin/ mg Creatinine in urine and 0.363 mg Albumin/ mg Creatinine in urine and 64.328 mg Albumin/ mg Creatinine in urine and 0.368 mg Albumin/ mg Creatinine in urine and 1.926 mg Albumin/ mg Creatinine in urine
same,Body Weight,[5]; [13],18 grams (3×) and 17 grams (2×)
same,Body Weight,"[5]; 30 mg/Kg/day, 21 days after inj",18 grams
same,ACR in spot urine,"[5]; 30 mg/Kg/day, 21 days after inj, 30 mg/kg/day",1.551 mg Albumin/ mg Creatinine in urine and 71.309 mg Albumin/ mg Creatinine in urine and 0.609 mg Albumin/ mg Creatinine in urine and 0.814 mg Albumin/ mg Creatinine in urine
same,Body Weight,"[5]; 30 mg/Kg/day, 28 days after inj",19 grams
same,ACR in spot urine,"[5]; 30 mg/Kg/day, 28 days after inj, 30 mg/kg/day",2.363 mg Albumin/ mg Creatinine in urine and 0.33 mg Albumin/ mg Creatinine in urine and 3.08 mg Albumin/ mg Creatinine in urine and 0.093 mg Albumin/ mg Creatinine in urine and 0.242 mg Albumin/ mg Creatinine in urine
same,Body Weight,"[5]; 100 mg/Kg/day, 0 days after inj, 100 mg/kg/day",20 grams (2×) and 18 grams and 19 grams (2×)
same,ACR in spot urine,[5]; [14],0.022 mg Albumin/ mg Creatinine in urine and 0.015 mg Albumin/ mg Creatinine in urine and 0.072 mg Albumin/ mg Creatinine in urine and 0.065 mg Albumin/ mg Creatinine in urine
same,Body Weight,[5]; [14],18 grams and 17 grams (4×)
same,ACR in spot urine,[5]; [15],5.851 mg Albumin/ mg Creatinine in urine and 174.428 mg Albumin/ mg Creatinine in urine and 9.218 mg Albumin/ mg Creatinine in urine and 96.72 mg Albumin/ mg Creatinine in urine
same,Body Weight,[5]; [15],17 grams (3×) and 18 grams and 19 grams
same,ACR in spot urine,[5]; [16],3.536 mg Albumin/ mg Creatinine in urine and 136.245 mg Albumin/ mg Creatinine in urine and 73.737 mg Albumin/ mg Creatinine in urine and 208.282 mg Albumin/ mg Creatinine in urine
same,Body Weight,[5]; [16],15 grams and 18 grams (3×)
same,ACR in spot urine,[5]; [17],0.638 mg Albumin/ mg Creatinine in urine and 26.929 mg Albumin/ mg Creatinine in urine and 1.99 mg Albumin/ mg Creatinine in urine and 18.858 mg Albumin/ mg Creatinine in urine
same,Body Weight,[5]; [17],15 grams and 19 grams and 18 grams and 14 grams
